According to ChEMBL document CHEMBL1201862, “PubChem BioAssay data set” (2004):
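Five compound concentrations were applied to cells in 96-well plates for 48 hours; endpoints were derived by simple linear interpolation of the resulting dose-response curve. Here, GI50 denotes the concentration required for 50% inhibition of growth.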 Calls of active or inactive are those of the source. Rule as the data show it: active = GI50 up to about 1.1 µM and inactive = higher.

What was measured:
Assay in all cases: NCI-60 cell line screen, 48 h
MOLT-4 = test system: MOLT-4
NCI-H522 = test system: NCI-H522
COLO 205 = test system: COLO 205
HCT-15 = test system: HCT-15
TK-10 = test system: TK-10
MCF7 = test system: MCF7
OVCAR-3 = test system: OVCAR-3
BT-549 = test system: BT-549
IGROV-1 = test system: IGROV-1
MDA-MB-435 = test system: MDA-MB-435
LOX IMVI = test system: LOX IMVI
NCI-H460 = test system: NCI-H460
SW-620 = test system: SW-620
NCI-H23 = test system: NCI-H23
OVCAR-5 = test system: OVCAR-5
CCRF-CEM = test system: CCRF-CEM
SK-MEL-28 = test system: SK-MEL-28
UACC-257 = test system: UACC-257
HOP-62 = test system: HOP-62
HT-29 = test system: HT-29
SNB-19 = test system: SNB-19
UO-31 = test system: UO-31
Hs-578T = test system: Hs-578T
K562 = test system: K562
SF-268 = test system: SF-268
HCC 2998 = test system: HCC 2998
T47D = test system: T47D
HL-60 = test system: HL-60
M14 = test system: M14
U-251 = test system: U-251
KM12 = test system: KM12
NCI/ADR-RES = test system: NCI/ADR-RES
SR = test system: SR
ACHN = test system: ACHN
786-0 = test system: 786-0
Malme-3M = test system: Malme-3M
MDA-N = test system: MDA-N
OVCAR-4 = test system: OVCAR-4
SK-MEL-2 = test system: SK-MEL-2
RPMI-8226 = test system: RPMI-8226
DU-145 = test system: DU-145
PC-3 = test system: PC-3
SK-OV-3 = test system: SK-OV-3
A498 = test system: A498
A549 = test system: A549
CAKI-1 = test system: CAKI-1
SNB-75 = test system: SNB-75
SF-539 = test system: SF-539
OVCAR-8 = test system: OVCAR-8
SK-MEL-5 = test system: SK-MEL-5
HCT-116 = test system: HCT-116
MDA-MB-231 = test system: MDA-MB-231
HOP-92 = test system: HOP-92
RXF 393 = test system: RXF 393
UACC-62 = test system: UACC-62
SF-295 = test system: SF-295
EKVX = test system: EKVX
SN12C = test system: SN12C
NCI-H226 = test system: NCI-H226

COc1cc2c(c3oc4c(O)cccc4c(=O)c13)CC(C(C)(O)CCl)O2 (stereo not drawn)
GI50 (MOLT-4): < 0.01 µM (active)
GI50 (NCI-H522): 1.73 µM (inactive)
GI50 (COLO 205): 0.373 µM (active)
GI50 (HCT-15): 1.04 µM
GI50 (TK-10): 12.1 µM (inactive)
GI50 (MCF7): 0.0254 µM (active)
GI50 (OVCAR-3): 1.21 µM (inactive)
GI50 (BT-549): 3.85 µM (inactive)
GI50 (IGROV-1): 2.03 µM (inactive)
GI50 (MDA-MB-435): 0.13 µM (active)
GI50 (LOX IMVI): < 0.01 µM (active)
GI50 (NCI-H460): 2.64 µM (inactive)
GI50 (SW-620): 0.0277 µM (active)
GI50 (NCI-H23): 0.512 µM (active)
GI50 (OVCAR-5): 6.34 µM (inactive)
GI50 (CCRF-CEM): 0.0277 µM (active)
GI50 (SK-MEL-28): 0.968 µM (active)
GI50 (UACC-257): 1.98 µM (inactive)
GI50 (HOP-62): 0.733 µM (active)
GI50 (HT-29): 0.0476 µM (active)
GI50 (SNB-19): 4.85 µM (inactive)
GI50 (UO-31): 0.807 µM (active)
GI50 (Hs-578T): 2.03 µM (inactive)
GI50 (K562): 0.0242 µM (active)
GI50 (SF-268): 0.0728 µM (active)
GI50 (HCC 2998): 1.32 µM (inactive)
GI50 (T47D): 2.8 µM (inactive)
GI50 (HL-60): 0.115 µM (active)
GI50 (M14): 0.256 µM (active)
GI50 (U-251): 1.98 µM (inactive)
GI50 (KM12): 1.29 µM (inactive)
GI50 (NCI/ADR-RES): 0.679 µM (active)
GI50 (SR): < 0.0338 µM (active)
GI50 (ACHN): 0.114 µM (active)
GI50 (786-0): 0.889 µM (active)
GI50 (Malme-3M): 2.06 µM (inactive)
GI50 (MDA-N): 0.51 µM (active)
GI50 (OVCAR-4): 1.45 µM (inactive)
GI50 (SK-MEL-2): 1.36 µM (inactive)
GI50 (RPMI-8226): 0.0661 µM (active)
GI50 (DU-145): 2.31 µM (inactive)
GI50 (PC-3): 1.22 µM (inactive)
GI50 (SK-OV-3): 4.35 µM (inactive)
GI50 (A498): 15.1 µM (inactive)
GI50 (A549): 2.54 µM (inactive)
GI50 (CAKI-1): 1.16 µM (inactive)
GI50 (SNB-75): 3.35 µM (inactive)
GI50 (SF-539): 0.443 µM (active)
GI50 (OVCAR-8): 0.219 µM (active)
GI50 (SK-MEL-5): 0.279 µM (active)
GI50 (HCT-116): 0.157 µM (active)
GI50 (MDA-MB-231): 1.55 µM (inactive)
GI50 (HOP-92): 2.45 µM (inactive)
GI50 (RXF 393): 0.834 µM (active)
GI50 (UACC-62): 0.728 µM (active)
GI50 (SF-295): 1.92 µM (inactive)
GI50 (EKVX): 5.52 µM (inactive)
GI50 (SN12C): 0.209 µM (active)
GI50 (NCI-H226): 5.81 µM (inactive)

CC[P+]1(c2ccccc2)[C@@H](C)CC[C@@H]1C
GI50 (MOLT-4): > 100 µM (inactive)
GI50 (NCI-H522): > 100 µM (inactive)
GI50 (COLO 205): 85.1 µM (inactive)
GI50 (HCT-15): > 100 µM
GI50 (TK-10): > 100 µM (inactive)
GI50 (MCF7): > 100 µM (inactive)
GI50 (OVCAR-3): 84.1 µM (inactive)
GI50 (BT-549): > 100 µM (inactive)
GI50 (IGROV-1): > 100 µM (inactive)
GI50 (MDA-MB-435): > 100 µM (inactive)
GI50 (LOX IMVI): > 100 µM (inactive)
GI50 (NCI-H460): > 100 µM (inactive)
GI50 (SW-620): > 100 µM (inactive)
GI50 (NCI-H23): > 100 µM (inactive)
GI50 (OVCAR-5): > 100 µM (inactive)
GI50 (CCRF-CEM): > 100 µM (inactive)
GI50 (SK-MEL-28): > 100 µM (inactive)
GI50 (UACC-257): > 100 µM (inactive)
GI50 (HOP-62): > 100 µM (inactive)
GI50 (HT-29): > 100 µM (inactive)
GI50 (SNB-19): > 100 µM (inactive)
GI50 (UO-31): > 100 µM (inactive)
GI50 (Hs-578T): > 100 µM (inactive)
GI50 (K562): 96.2 µM (inactive)
GI50 (SF-268): > 100 µM (inactive)
GI50 (HCC 2998): > 100 µM (inactive)
GI50 (T47D): > 100 µM (inactive)
GI50 (HL-60): > 100 µM (inactive)
GI50 (M14): > 100 µM (inactive)
GI50 (U-251): 40.5 µM (inactive)
GI50 (KM12): > 100 µM (inactive)
GI50 (NCI/ADR-RES): > 100 µM (inactive)
GI50 (SR): > 100 µM (inactive)
GI50 (ACHN): > 100 µM (inactive)
GI50 (786-0): > 100 µM (inactive)
GI50 (Malme-3M): 97.1 µM (inactive)
GI50 (MDA-N): > 100 µM (inactive)
GI50 (OVCAR-4): > 100 µM (inactive)
GI50 (SK-MEL-2): > 100 µM (inactive)
GI50 (RPMI-8226): > 100 µM (inactive)
GI50 (DU-145): > 100 µM (inactive)
GI50 (PC-3): 61.9 µM (inactive)
GI50 (SK-OV-3): > 100 µM (inactive)
GI50 (A498): > 100 µM (inactive)
GI50 (A549): > 100 µM (inactive)
GI50 (CAKI-1): > 100 µM (inactive)
GI50 (SNB-75): > 100 µM (inactive)
GI50 (SF-539): > 100 µM (inactive)
GI50 (OVCAR-8): > 100 µM (inactive)
GI50 (SK-MEL-5): 65.2 µM (inactive)
GI50 (HCT-116): > 100 µM (inactive)
GI50 (MDA-MB-231): > 100 µM (inactive)
GI50 (HOP-92): 39.1 µM (inactive)
GI50 (RXF 393): > 100 µM (inactive)
GI50 (UACC-62): > 100 µM (inactive)
GI50 (SF-295): > 100 µM (inactive)
GI50 (EKVX): > 100 µM (inactive)
GI50 (SN12C): > 100 µM (inactive)
GI50 (NCI-H226): > 100 µM (inactive)
